Test results reported in publication PMC8151276, “An Integrated Approach toward NanoBRET Tracers for Analysis of GPCR Ligand Engagement” (Molecules, 2021).

Columns and labels:
Assay type in all cases: binding
TBXA2R = molecular target: T1, TBXA2R (Homo sapiens, UniProt P21731); assay: NanoBRET screen HiBiT-TBXA2R in HEK293
T1 construct: purchased Promega (in-house HiBiT-GPCR construct library, NanoBRET)
T1 sequence (P21731 1-343): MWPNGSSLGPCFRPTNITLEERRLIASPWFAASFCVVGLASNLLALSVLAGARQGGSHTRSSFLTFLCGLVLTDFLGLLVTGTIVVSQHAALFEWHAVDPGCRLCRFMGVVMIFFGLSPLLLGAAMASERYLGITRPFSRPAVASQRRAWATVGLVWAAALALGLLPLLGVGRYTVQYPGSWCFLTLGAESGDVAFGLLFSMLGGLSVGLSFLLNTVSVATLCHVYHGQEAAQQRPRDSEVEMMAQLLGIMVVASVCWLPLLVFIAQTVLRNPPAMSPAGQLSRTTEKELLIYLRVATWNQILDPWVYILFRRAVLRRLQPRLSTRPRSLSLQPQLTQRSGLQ
Experimental: (§1) Each tracer candidate was screened across the entire library of HiBiT-GPCR constructs using NanoBRET as the detection modality. As depicted in Figure 4A, the specificity of interactions was evaluated through decrease in BRET due to competitive displacement of a bound tracer by excess parental compound. Each tracer was analyzed for binding to each HiBiT-GPCR fusion in the absence and in the presence of competing parental compound. Briefly, HEK293 cells were transfected with HiBiT-GPCR constructs diluted into promoterless DNA to reduce expression and maximize translocation to the cell surface. Each tracer candidate was then screened at concentrations of 1 μM and 0.1 μM across cells expressing these fusions. Cells were treated for 1.5 h with tracer either alone or in the presence of 20 μM competing parental compound (i.e., control). BRET was measured upon addition of purified LgBiT and subsequent complementation with HiBiT genetically fused to a GPCR. The specificity of interactions was assessed through a decrease in BRET signal due to competitive displacement of the bound tracer. To further gauge the robustness of these interactions, the fold response over the control (i.e., BRETtracer/BRETcontrol) was calculated. We chose a 1.5-fold response, which translates to ≥7-fold signal over noise as the minimal threshold required to score an interaction as positive. […]. Below we highlight the screening results obtained for our exemplary fluorescent tracers based on Clozapine, Amitriptyline and AZD1283.
(§2) HiBiT-GPCR DNA constructs were diluted in 10 mM Tris pH 8 to a final concentration of 0.01 μg/μL, arrayed in 96-well plates and stored at −20 °C. For transfection, HEK293 cells were suspended in Opti-MEM (without phenol red) supplemented with 2% fetal bovine serum (Seradigm) and 100 units/mL penicillin–streptomycin (Gibco) at a final concentration of 220,000 cells/mL and dispensed into white 96-well plates at 90 μL/well. Subsequent transfections and screens were carried using an Agilent Bravo Automated Liquid Handling Platform. First, the 96-well HiBiT DNA arrays were diluted 25-fold in Opti-MEM (without serum or phenol red) to a final concentration of 0.0004 μg/μL and 20 μL of the diluted DNAs were transferred into new 96-well plates. Next, promoterless carrier DNA (1 μg/μL) was diluted 25-fold (0.04 μg/μL) and then dispensed into the diluted arrays at 20 μL/well. Following brief mixing, Viafect transfection reagent (Promega) diluted 16-fold into Opti-MEM was dispensed into the plates at 40 μL/well. After mixing by pipetting, plates were incubated for 10 min on the pipetting station deck. The DNA-transfection reagent complexes were then added to plates containing cells. To facilitate the screen, 10 μL of DNA-transfection reagent complexes were added in duplicates to the top 4 and bottom 4 rows, resulting in two identical 48-well arrays per plate. Plates with transfected cells were incubated for 18–20 h at 37 °C/5% CO2. A screen of each tracer across the entire library using two different concentrations requires duplicate plates of transfected cells. Depending on the number of tracers being screened, transfections can be scaled up using the same ratios. The next day, for each tracer, four 20× screening solutions in tracer dilution buffer (Promega) were prepared: two duplicates at final concentration of 20 μM and two duplicates at a final concentration of 2 μM. A competing unmodified compound was added to one of each duplicate at a final concentration of 400 μM. The four resulting solutions were diluted 4-fold in Opti-MEM without serum or phenol red to generate 5× solutions (5 µM and 0.5 µM tracer +/− 100 μM competing compound). To screen the library, a BioTek MultiFlo FX liquid dispenser was used to dispense 22.5 µL of tracer solution to the top 4 rows and 22.5 µL tracer + competing compound solution to the 4 bottom rows. Plates were briefly mixed on an orbital shaker and incubated for 1.5 h at room temperature. […]

BDKRB2 = molecular target: T2, BDKRB2 (Homo sapiens, UniProt P30411); assay: NanoBRET screen HiBiT-BDKRB2 in HEK293
T2 construct: purchased Promega (in-house HiBiT-GPCR construct library, NanoBRET)
T2 sequence (P30411 1-391): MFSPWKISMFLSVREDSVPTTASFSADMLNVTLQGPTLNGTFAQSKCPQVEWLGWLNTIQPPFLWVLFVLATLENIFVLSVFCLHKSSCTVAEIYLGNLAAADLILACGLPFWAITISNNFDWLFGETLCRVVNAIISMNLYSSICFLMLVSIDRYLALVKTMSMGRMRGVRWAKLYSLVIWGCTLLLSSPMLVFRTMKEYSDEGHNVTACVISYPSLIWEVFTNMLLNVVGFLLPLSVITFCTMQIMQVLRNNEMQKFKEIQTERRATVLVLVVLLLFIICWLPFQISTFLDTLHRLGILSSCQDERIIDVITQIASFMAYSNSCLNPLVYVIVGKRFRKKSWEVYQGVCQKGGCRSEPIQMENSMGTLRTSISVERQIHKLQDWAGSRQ
Experimental: as §1, §2

NPY2R = molecular target: T3, NPY2R (Homo sapiens, UniProt P49146); assay: NanoBRET screen HiBiT-NPY2R in HEK293
T3 construct: purchased Promega (in-house HiBiT-GPCR construct library, NanoBRET)
T3 sequence (P49146 1-381): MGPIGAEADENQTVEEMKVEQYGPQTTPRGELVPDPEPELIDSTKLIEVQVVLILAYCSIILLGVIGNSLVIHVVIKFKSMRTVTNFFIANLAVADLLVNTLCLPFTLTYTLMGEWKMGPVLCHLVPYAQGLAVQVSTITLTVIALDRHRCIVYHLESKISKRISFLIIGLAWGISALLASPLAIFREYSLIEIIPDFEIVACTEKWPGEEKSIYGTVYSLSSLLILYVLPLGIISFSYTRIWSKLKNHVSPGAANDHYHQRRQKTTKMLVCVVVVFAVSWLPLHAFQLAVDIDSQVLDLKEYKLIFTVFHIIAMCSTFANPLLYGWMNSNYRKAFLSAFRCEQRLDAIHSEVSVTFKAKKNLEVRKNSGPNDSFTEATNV
Experimental: as §1, §2

Compound	NanoBRET Fold Response (TBXA2R; TBXA2R, tracer 0.1μM)	NanoBRET Fold Response (TBXA2R; TBXA2R, tracer 1μM)	NanoBRET Fold Response (BDKRB2; BDKRB2, tracer 0.1μM)	NanoBRET Fold Response (BDKRB2; BDKRB2, tracer 1μM)	NanoBRET Fold Response (NPY2R; NPY2R, tracer 0.1μM)	NanoBRET Fold Response (NPY2R; NPY2R, tracer 1μM)	other results
N#CN=C(NCCCOc1cccc(CN2CCCCC2)c1)NCCNC(=O)CCOCCOCCOCCOCCNC(=O)CCc1ccc2n1[B-](F)(F)[N+]1=C(c3ccc[nH]3)C=CC1=C2 [Aminopotentidine-2-NB590]	0.98	1.04	1.00	1.01	0.98	1.00	–
O=C(CCc1ccc2n1[B-](F)(F)[N+]1=C(c3ccc[nH]3)C=CC1=C2)NCc1ccc(C(=O)NCCOCCOCCNCC(O)COc2cccc3ccccc23)cc1 (stereo not drawn) [Propranolol-3-NB590]	–	–	–	–	–	–	NanoBRET Fold Response (TBXA2R; TBXA2R, 0.1μM): 0.97; NanoBRET Fold Response (TBXA2R; TBXA2R, 1μM): 1.09; NanoBRET Fold Response (BDKRB2; BDKRB2, 0.1μM): 1.04; NanoBRET Fold Response (BDKRB2; BDKRB2, 1μM): 1.07; NanoBRET Fold Response (NPY2R; NPY2R, 0.1μM): 1.02; NanoBRET Fold Response (NPY2R; NPY2R, 1μM): 1.00
O=C(CCc1ccc2n1[B-](F)(F)[N+]1=C(c3ccc[nH]3)C=CC1=C2)NCc1ccc(C(=O)NCCOCCC(=O)N[C@@H]2CC[C@@]3(O)[C@H]4Cc5ccc(O)c6c5[C@@]3(CCN4CC3CC3)[C@H]2O6)cc1 [Naltrexone-3-NB590]	1.24	1.13	1.07	0.94	1.05	0.96	–
COc1ccccc1N1CCN(CCCCN2C(=O)c3ccc(CNC(=O)CCOCCNC(=O)c4ccc(CNC(=O)CCc5ccc6n5[B-](F)(F)[N+]5=C(c7ccc[nH]7)C=CC5=C6)cc4)cc3C2=O)CC1 [NAN-190-3-NB590]	1.08	1.15	0.97	0.88	1.05	1.07	–
Cc1cc2c(s1)Nc1ccccc1N=C2N1CCN(CCCNC(=O)CCOCCOCCOCCOCCNC(=O)CCc2ccc3n2[B-](F)(F)[N+]2=C(c4ccc[nH]4)C=CC2=C3)CC1 [Olanzapine-a-2-NB590]	0.95	1.02	0.97	1.06	1.00	0.99	–
CCCn1c(=O)c2[nH]c(-c3ccc(OCC(=O)NCCNC(=O)CCOCCNC(=O)c4ccc(CNC(=O)CCc5ccc6n5[B-](F)(F)[N+]5=C(c7ccc[nH]7)C=CC5=C6)cc4)cc3)nc2n(CCC)c1=O [XAC-3-NB590]	1.04	1.04	1.00	1.14	0.93	1.03	–
COc1ccc2c(n1)c(CCNC(C)=O)cn2CCNC(=O)CCc1ccc2n1[B-](F)(F)[N+]1=C(c3ccc[nH]3)C=CC1=C2 [Azamelatonin-1-NB590]	–	–	–	–	–	–	NanoBRET Fold Response (TBXA2R; 0.1μM tracer): 0.84; NanoBRET Fold Response (TBXA2R; 1μM tracer): 0.94; NanoBRET Fold Response (BDKRB2; 0.1μM tracer): 1.00; NanoBRET Fold Response (BDKRB2; 1μM tracer): 1.05; NanoBRET Fold Response (NPY2R; 0.1μM tracer): 1.19; NanoBRET Fold Response (NPY2R; 1μM tracer): 0.85
